Columns and labels:
[1] = biological target: human α2β3γ2 GABAARs (benzodiazepine site) (Homo sapiens (Human), UniProt P18507+P47869); assay: In vitro radioligand binding assay ([3H]Ro15-1788 displacement), α2-GABAAR Ki
In short: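 Membranes from dexamethasone-induced mouse L(tk−) cells stably expressing the human receptor were incubated 1 h at 4° C with 4 nM [3H]Ro15-1788 and graded compound; nonspecific binding with 1-3 μM TP003. Filter-bound radioactivity counted; Ki from IC50 by Cheng-Prusoff using the measured radioligand Kd.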

[2] = biological target: human α3β3γ2 GABAARs (benzodiazepine site) (Homo sapiens (Human), UniProt P18507+P34903); assay: In vitro radioligand binding assay ([3H]Ro15-1788 displacement), α3-GABAAR Ki; conditions: L(tk-) cell membranes, 4 nM [3H]Ro15-1788
Procedure: The affinity (Ki) of compounds for the benzodiazepine site of human recombinant GABAARs was measured by their ability to inhibit the binding of the selective benzodiazepine antagonist [^3H]Ro15-1788 ([^3H] flumazenil).
Mouse L(tk^−) cells stably expressing human α1β3γ2, α2β3γ2, α3β3γ2, α5β3γ2 GABAARs were generated by transfection of the individual subunits in the dexamethasone-inducible expression vector pMSGneo in mouse L(tk^−) cells (Hadingham et al., 1993, Mol. Pharmacol. 43:970-975 and 1993, Mol. Pharmacol. 44:1211-1218).
L(tk^−) cells stably expressing human α1β3γ2, α2β3γ2, α3β3γ2, α5β3γ2 GABAARs were maintained in DMEM F12 medium supplemented with 10% Foetal Bovine Serum, 1% Penicillin/Streptomycin and 1 mg/mL Geneticin G418 in an incubator at 37° C. with a humidified atmosphere with 5% CO2. Dexamethasone was added to the culture medium to induce GABAAR expression.
L(tk−) cells were harvested and membranes were prepared for each receptor combination in either TE buffer (10 mM Tris·CI/0.1 mM EDTA, pH 7.5) or phosphate buffer (K2PO4 10 mM, pH 7.0) (Hadingham et al. (1992) Proc. Natl. Acad. Sci. USA; 89 (14): 6378-82). Protein concentration, receptor expression and the Kd of [^3H]Ro15-1788 were determined before Ki value of the compounds were evaluated. For Kd evaluation, saturation binding curves were obtained by incubating membrane with various concentrations of [^3H]Ro15-1788 (82.5 Ci/mM), with nonspecific binding measured in the presence of 1-3 μM TP003.
For Ki evaluation, cell membranes were incubated with 4 nM [^3H]Ro15-1788 along with a range of concentrations of test compound. Nonspecific binding was determined using 1-3 μM TP003. All incubations were performed for 1 hour at 4° C. in assay buffer. The total assay volume was 0.5 mL, containing 40 μg/well α1β3γ2, 30 μg/well α2β3γ2, 40 μg/well α3β3γ2 and 30 μg/well for α5β3γ2 of membrane protein. Incubations were terminated by filtration and washing with ice cold Tris-HCl buffer (50 mM, pH=7.4) over Whatman GF/B filters and the radioactivity of the filters was measured using liquid scintillation counting.
The % inhibition of [^3H]Ro15-1788 binding was plotted as a function of compound concentration and the IC50 calculated. From the IC50, the affinity (Ki) was calculated using the method of Cheng and Prusoff using the Kd values obtained for [^3H]Ro15-1788.

human α2β3γ2 GABAARs = assay: In vitro electrophysiological recording assay (automated patch-clamp), α2-GABAAR relative efficacy; type: cell-based; conditions: % efficacy normalised to diazepam; GABA EC10-20; concentration generally >= 100 times Ki
In short: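 Automated whole-cell patch clamp at 20-22° C on L(tk^−) cells (QPatch, −65 mV) or HEK293 cells (SyncroPatch, −80 mV) stably expressing the human receptor. Compound pre-applied ≥1 min, then co-applied with GABA EC10-20; % potentiation of leak-corrected peak current, normalised to diazepam, typically at ≥100× Ki.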

Sequence of human α2β3γ2 GABAARs (benzodiazepine site) (P47869 29-451): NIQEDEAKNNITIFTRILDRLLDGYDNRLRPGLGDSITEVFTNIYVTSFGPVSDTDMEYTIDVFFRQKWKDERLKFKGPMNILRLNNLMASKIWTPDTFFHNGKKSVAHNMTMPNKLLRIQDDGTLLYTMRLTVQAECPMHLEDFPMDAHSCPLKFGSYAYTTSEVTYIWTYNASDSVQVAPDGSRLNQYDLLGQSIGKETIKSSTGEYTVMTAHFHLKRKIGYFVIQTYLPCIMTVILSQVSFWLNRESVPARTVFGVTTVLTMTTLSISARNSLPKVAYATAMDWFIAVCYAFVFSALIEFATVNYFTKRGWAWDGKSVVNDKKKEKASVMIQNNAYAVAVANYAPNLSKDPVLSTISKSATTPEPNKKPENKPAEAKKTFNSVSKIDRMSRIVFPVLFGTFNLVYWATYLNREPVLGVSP
Sequence of human α2β3γ2 GABAARs (benzodiazepine site) (P28472 26-473 partner): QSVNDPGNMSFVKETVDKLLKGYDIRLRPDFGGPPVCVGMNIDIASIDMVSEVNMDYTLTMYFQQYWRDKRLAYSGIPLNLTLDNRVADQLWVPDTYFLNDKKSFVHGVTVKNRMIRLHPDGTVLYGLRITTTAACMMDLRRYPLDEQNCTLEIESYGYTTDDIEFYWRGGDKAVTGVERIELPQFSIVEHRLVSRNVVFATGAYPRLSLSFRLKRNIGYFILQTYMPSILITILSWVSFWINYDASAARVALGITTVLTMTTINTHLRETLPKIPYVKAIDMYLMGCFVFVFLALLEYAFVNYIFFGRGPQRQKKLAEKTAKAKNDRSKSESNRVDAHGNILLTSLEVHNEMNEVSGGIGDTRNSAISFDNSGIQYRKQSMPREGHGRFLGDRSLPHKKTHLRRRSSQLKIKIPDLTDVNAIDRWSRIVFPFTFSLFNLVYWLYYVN
Sequence of human α2β3γ2 GABAARs (benzodiazepine site) (P18507 40-475): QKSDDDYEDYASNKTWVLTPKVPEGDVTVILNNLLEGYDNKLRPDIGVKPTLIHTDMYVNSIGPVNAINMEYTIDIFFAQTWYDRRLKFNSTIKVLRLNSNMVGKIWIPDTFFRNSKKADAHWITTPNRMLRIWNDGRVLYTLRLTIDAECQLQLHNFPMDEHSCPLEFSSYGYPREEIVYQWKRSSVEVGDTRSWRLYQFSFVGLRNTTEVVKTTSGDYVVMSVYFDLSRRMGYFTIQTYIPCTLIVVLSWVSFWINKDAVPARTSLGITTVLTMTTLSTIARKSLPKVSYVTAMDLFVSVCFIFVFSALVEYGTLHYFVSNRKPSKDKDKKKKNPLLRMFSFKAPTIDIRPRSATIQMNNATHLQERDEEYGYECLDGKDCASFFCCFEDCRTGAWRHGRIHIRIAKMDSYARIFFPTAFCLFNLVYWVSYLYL

CCCNC(=O)c1c(N)c2cccc(-c3cccc(OC(F)F)n3)c2[nH]c1=O [Example 2, 4-Amino-8-(6-(difluoromethoxy)pyridin-2-yl)-2-oxo-N-propyl-1,2-dihydroquinoline-3-carboxamide]
Ki [1]: 3.33 nM
Ki [2]: 1.59 nM
α2-GABAAR Relative Efficacy (vs. Diazepam) (human α2β3γ2 GABAARs): 0.34

CCCNC(=O)c1c(N)c2cccc(-c3cc(F)ccn3)c2[nH]c1=O [Example 4, 4-Amino-8-(4-fluoro-2-pyridyl)-2-oxo-N-propyl-1H-quinoline-3-carboxamide]
Ki [1]: 1.26 nM
Ki [2]: 1.65 nM
α2-GABAAR Relative Efficacy (vs. Diazepam) (human α2β3γ2 GABAARs): 0.40

CCCNC(=O)c1c(N)c2cccc(-c3ncccc3C)c2[nH]c1=O [Example 5, 4-Amino-8-(3-methylpyridin-2-yl)-2-oxo-N-propyl-1,2-dihydroquinoline-3-carboxamide]
Ki [1]: 5.66 nM
Ki [2]: 16.1 nM
α2-GABAAR Relative Efficacy (vs. Diazepam) (human α2β3γ2 GABAARs): 0.42

CCCNC(=O)c1c(N)c2cccc(-c3nc(OC)ccc3F)c2[nH]c1=O [Example 8, 4-Amino-8-(3-fluoro-6-methoxypyridin-2-yl)-2-oxo-N-propyl-1,2-dihydroquinoline-3-carboxamide]
Ki [1]: 0.38 nM
Ki [2]: 0.19 nM
α2-GABAAR Relative Efficacy (vs. Diazepam) (human α2β3γ2 GABAARs): 0.24

CCCNC(=O)c1c(N)c2cccc(-c3nc(C(F)(F)F)ccc3C)c2[nH]c1=O [Example 13, 4-Amino-8-[3-methyl-6-(trifluoromethyl)-2-pyridyl]-2-oxo-N-propyl-1H-quinoline-3-carboxamide]
Ki [1]: 6.05 nM
Ki [2]: 7.6 nM
α2-GABAAR Relative Efficacy (vs. Diazepam) (human α2β3γ2 GABAARs): 0.34

CCCNC(=O)c1c(N)c2cccc(-c3cccnc3OC)c2[nH]c1=O [Example 14, 4-Amino-8-(2-methoxypyridin-3-yl)-2-oxo-N-propyl-1,2-dihydroquinoline-3-carboxamide]
Ki [1]: 2.13 nM
Ki [2]: 6.02 nM
α2-GABAAR Relative Efficacy (vs. Diazepam) (human α2β3γ2 GABAARs): 0.45

CCCNC(=O)c1c(N)c2cccc(-c3cncc(OC)c3)c2[nH]c1=O [Example 23, 4-Amino-8-(5-methoxy-3-pyridyl)-2-oxo-N-propyl-1H-quinoline-3-carboxamide]
Ki [1]: 2.31 nM
Ki [2]: 7.21 nM
α2-GABAAR Relative Efficacy (vs. Diazepam) (human α2β3γ2 GABAARs): 0.33

CCCNC(=O)c1c(N)c2cccc(-c3cncc(OC(C)C)c3)c2[nH]c1=O [Example 27, 4-Amino-8-(5-isopropoxypyridin-3-yl)-2-oxo-N-propyl-1,2-dihydroquinoline-3-carboxamide]
Ki [1]: 22.7 nM
Ki [2]: 10.6 nM
α2-GABAAR Relative Efficacy (vs. Diazepam) (human α2β3γ2 GABAARs): 0.28

CCCNC(=O)c1c(N)c2cccc(-c3cccc4c3OC(F)(F)O4)c2[nH]c1=O [Example 51, 4-Amino-8-(2,2-difluoro-1,3-benzodioxol-4-yl)-2-oxo-N-propyl-1H-quinoline-3-carboxamide]
Ki [1]: 1.71 nM
Ki [2]: 1.63 nM
α2-GABAAR Relative Efficacy (vs. Diazepam) (human α2β3γ2 GABAARs): 0.31

CCCNC(=O)c1c(N)c2cccc(-c3ccnn3C)c2[nH]c1=O [Example 53, 4-Amino-8-(2-methylpyrazol-3-yl)-2-oxo-N-propyl-1H-quinoline-3-carboxamide]
Ki [1]: 8.05 nM
Ki [2]: 18.4 nM
α2-GABAAR Relative Efficacy (vs. Diazepam) (human α2β3γ2 GABAARs): 0.17

CCCNC(=O)c1c(N)c2cccc(-c3cc(OCc4cccc(C)n4)ccc3F)c2[nH]c1=O [Example 88, 4-Amino-8-[2-fluoro-5-[(6-methyl-2-pyridyl)methoxy]phenyl]-2-oxo-N-propyl-1H-quinoline-3-carboxamide]
Ki [1]: 1.97 nM
Ki [2]: 1.37 nM
α2-GABAAR Relative Efficacy (vs. Diazepam) (human α2β3γ2 GABAARs): 0.26

CCCNC(=O)c1c(N)c2cccc(-c3cc(OCc4csc(C)n4)ccc3F)c2[nH]c1=O [Example 120, 4-Amino-8-(2-fluoro-5-((2-methylthiazol-4-yl)methoxy)phenyl)-2-oxo-N-propyl-1,2-dihydroquinoline-3-carboxamide]
Ki [1]: 1.19 nM
Ki [2]: 1.18 nM
α2-GABAAR Relative Efficacy (vs. Diazepam) (human α2β3γ2 GABAARs): 0.21

CCCNC(=O)c1c(N)c2cccc(-c3cc(OCc4cocn4)ccc3F)c2[nH]c1=O [Example 121, 4-Amino-8-[2-fluoro-5-(oxazol-4-ylmethoxy)phenyl]-2-oxo-N-propyl-1H-quinoline-3-carboxamide]
Ki [1]: 0.3 nM
Ki [2]: 0.61 nM
α2-GABAAR Relative Efficacy (vs. Diazepam) (human α2β3γ2 GABAARs): 0.35

CCCNC(=O)c1c(N)c2cccc(-c3cc(OCc4coc(C)n4)ccc3F)c2[nH]c1=O [Example 122, 4-Amino-8-(2-fluoro-5-((2-methyloxazol-4-yl)methoxy)phenyl)-2-oxo-N-propyl-1,2-dihydroquinoline-3-carboxamide]
Ki [1]: 0.89 nM
Ki [2]: 3.56 nM
α2-GABAAR Relative Efficacy (vs. Diazepam) (human α2β3γ2 GABAARs): 0.33

CCCNC(=O)c1c(N)c2cccc(-c3cc(OCc4nnc(C(F)(F)F)o4)ccc3F)c2[nH]c1=O [Example 132, 4-Amino-8-[2-fluoro-5-[[5-(trifluoromethyl)-1,3,4-oxadiazol-2-yl]methoxy]phenyl]-2-oxo-N-propyl-1H-quinoline-3-carboxamide]
Ki [1]: 0.66 nM
Ki [2]: 1.19 nM
α2-GABAAR Relative Efficacy (vs. Diazepam) (human α2β3γ2 GABAARs): 0.24

CCCNC(=O)c1c(N)c2cccc(-c3cc(CN4CCC5(CC4)CN(C)C5)ccc3F)c2[nH]c1=O [Example 144, 4-Amino-8-(2-fluoro-5-((2-methyl-2,7-diazaspiro[3.5]nonan-7-yl)methyl)phenyl)-2-oxo-N-propyl-1,2-dihydroquinoline-3-carboxamide]
Ki [1]: 1.99 nM
Ki [2]: 5.43 nM
α2-GABAAR Relative Efficacy (vs. Diazepam) (human α2β3γ2 GABAARs): 0.41

Reference: patent US20250197368A1 (priority 2020, published 2025)
